# Results published in paper PMC4511751, “Rapid Expansion of Phenylthiocarbamide Non-Tasters among Japanese Macaques” (PLoS ONE, 2015).
# How the values were obtained:
# [1] = target: T1, MmTAS2R38WT-a (Macaca mulatta, UniProt F1T2U6); assay: calcium imaging, fluo-4, FlexStation, HEK293T with G-alpha16gust44; type: cell-based
# T1 construct: gene tas2r38; full-length TAS2R38, N-terminal first 45 residues of rat ssr3 and C-terminal last 8 residues of bovine rhodopsin as tags, pEAK10, HEK293T, co-expressed with chimeric G-alpha16gust44
# T1 sequence (F1T2U6 1-333): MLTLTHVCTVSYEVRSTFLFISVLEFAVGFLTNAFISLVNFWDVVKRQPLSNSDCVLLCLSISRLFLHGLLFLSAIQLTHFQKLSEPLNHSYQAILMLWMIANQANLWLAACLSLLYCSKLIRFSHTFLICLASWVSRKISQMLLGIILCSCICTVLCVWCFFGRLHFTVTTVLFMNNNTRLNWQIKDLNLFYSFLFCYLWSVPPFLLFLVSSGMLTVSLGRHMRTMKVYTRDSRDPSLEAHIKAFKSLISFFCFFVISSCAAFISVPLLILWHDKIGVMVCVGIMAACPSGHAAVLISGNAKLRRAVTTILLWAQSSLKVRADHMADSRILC
# [2] = target: T2, MfTAS2R38TR-K (Macaca fuscata, UniProt F1T2T8); details: truncated allele Mf-K; pH 7.4
# T2 construct: gene tas2r38
# T2 sequence (F1T2T8 1-237): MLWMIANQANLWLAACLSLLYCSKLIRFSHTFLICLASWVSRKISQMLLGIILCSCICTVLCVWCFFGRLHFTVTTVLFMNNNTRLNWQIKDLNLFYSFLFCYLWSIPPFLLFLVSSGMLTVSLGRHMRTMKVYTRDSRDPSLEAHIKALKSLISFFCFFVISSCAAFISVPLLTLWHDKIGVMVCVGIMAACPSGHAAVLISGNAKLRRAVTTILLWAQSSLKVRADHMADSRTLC
smiles,measurement,setting,value
NC(=S)Nc1ccccc1 [phenylthiocarbamide],EC50,[1],0.56 µM
same,"calcium imaging, fluo-4, FlexStation, HEK293T with G-alpha16gust44",[2],failed to respond to PTC
